Measurements taken from patent US10301284B2, “Therapeutic inhibitory compounds” (LifeSci Pharmaceuticals, Inc., priority 2016, dated 2019).

Target: human Plasma Kallikrein (Homo sapiens (Human), UniProt P03952)
Assay: In vitro enzyme inhibition of human plasma kallikrein (Pro-Phe-Arg-AMC cleavage)
Assay type: biochemical
Details: not given
Experimental: The ability of the compounds disclosed herein to inhibit human plasma kallikrein activity was quantified according to the procedures below.
A 10 mM solution of the test compound was made in DMSO. This solution was serially diluted 1:5 in DMSO to yield 2000, 400, 80, 16, 3.2, 0.64, 0.128, 0.0256 and 0.00512 μM compound test solutions. A control tube containing only DMSO is included. 16 μL of each compound test solution was combined with 384 μL of assay buffer (50 mM Tris-HCl pH 7.5, 150 mM NaCl, 0.01% Triton X-100) to yield a “4× test compound buffer stock”.
Separately, a 40 nM solution of human Plasma Kallikrein (Abcam) and a 93.6 μM solution Pro-Phe-Arg-AMC (Bachem) were made using assay buffer. These solutions are hereby referred to as 4×hPK and 2×PFR-AMC, respectively.
60 μL of each 4× test compound buffer stock was combined with 60 μL of 4×hPK to yield 120 μL of “2× test compound buffer stock/2×hPK”. 50 μL was removed from this mixture and placed into duplicate wells on a Microfluor 1Black U-bottom microtiter plate (Thermo Scientific). This plate was incubated for 5 minutes at 37° C. To each well, 50 μL of pre-warmed 2×PFR-AMC was added to start the enzymatic reaction. Cleavage of PFR-AMC was monitored in a Biotek Synergy H4 reader set at 37° C. Readings are taken every 43 seconds for 1 hour. The highest mean velocity over 20 reads (˜15 minutes) is used to calculate the IC50. The IC50 is calculated using the Gen5 (Biotek Instruments).
The ability of the compounds listed in Table 2 to inhibit human plasma kallikrein activity was determined.

Chain of human Plasma Kallikrein (P03952 391-638 limits assumed): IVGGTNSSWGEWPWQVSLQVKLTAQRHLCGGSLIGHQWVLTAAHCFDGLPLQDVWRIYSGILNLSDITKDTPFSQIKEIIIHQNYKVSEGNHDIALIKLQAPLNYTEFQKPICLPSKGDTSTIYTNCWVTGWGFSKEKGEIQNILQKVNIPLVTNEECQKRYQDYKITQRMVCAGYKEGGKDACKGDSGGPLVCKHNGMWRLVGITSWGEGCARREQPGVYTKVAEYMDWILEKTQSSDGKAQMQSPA
Chain of human Plasma Kallikrein (P03952 20-390 partner limits assumed): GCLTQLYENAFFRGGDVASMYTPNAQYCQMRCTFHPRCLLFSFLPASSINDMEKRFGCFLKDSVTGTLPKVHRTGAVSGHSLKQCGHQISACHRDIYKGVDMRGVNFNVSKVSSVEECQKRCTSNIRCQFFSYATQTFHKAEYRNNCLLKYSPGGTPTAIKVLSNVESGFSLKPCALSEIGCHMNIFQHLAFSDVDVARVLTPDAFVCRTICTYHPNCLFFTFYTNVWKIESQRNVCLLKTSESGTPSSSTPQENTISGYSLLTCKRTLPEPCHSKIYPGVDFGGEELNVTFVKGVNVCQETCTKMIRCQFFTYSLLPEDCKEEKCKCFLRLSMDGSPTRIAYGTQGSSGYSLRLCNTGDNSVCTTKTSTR

Question: For Cc1cc(N)nc(C)c1CNC(=O)c1nn(Cc2ccc3ncc(Cl)cc3c2)c2cccc(N)c12 [Example 33, 4-amino-N-((6-amino-2,4-dimethylpyridin-3-yl)methyl)-1-((3-chloroquinolin-6-yl)methyl)-1H-indazole-3-carboxamide], which IC50 is on record?
Answer: 100 to 1000 nM

Same assay, conditions: human plasma kallikrein, PFR-AMC substrate, 37° C.; read-out: hPK IC50

Question: For Cc1cc(N)nc(C)c1CNC(=O)c1cn(Cc2ccc3ncc(Cl)cc3c2)c2ccccc12 [Example 11, N-((6-amino-2,4-dimethylpyridin-3-yl)methyl)-1-((3-chloroquinolin-6-yl)methyl)-1H-indole-3-carboxamide], which IC50 is on record?
Answer: < 100 nM

Question: With Cc1cc(N)nc(C)c1CNC(=O)c1c2ccccc2nn1Cc1ccc2ncc(Cl)cc2c1 [Example 14, N-((6-amino-2,4-dimethylpyridin-3-yl)methyl)-2-((3-chloroquinolin-6-yl)methyl)-2H-indazole-3-carboxamide] as the compound, how does the IC50 read?
Answer: > 10000 nM

Question: With Cc1cc(N)nc(C)c1CNC(=O)c1nn(Cc2ccc3ncc(Cl)cc3c2)cc1[N+](=O)[O-] [Example 18, N-((6-amino-2,4-dimethylpyridin-3-yl)methyl)-1-((3-chloroquinolin-6-yl)methyl)-4-nitro-1H-pyrazole-3-carboxamide] as the compound, how does the IC50 read?
Answer: < 100 nM

Question: How did the IC50 turn out when Cc1cc(N)nc(C)c1CNC(=O)c1nc(Cc2ccc3ncc(Cl)cc3c2)c2ccccn12 [Example 23, N-((6-amino-2,4-dimethylpyridin-3-yl)methyl)-1-((3-chloroquinolin-6-yl)methyl)imidazo[1,5-a]pyridine-3-carboxamide] was run?
Answer: < 100 nM

Question: Which IC50 does the source give for Cc1cc(N)nc(C)c1CNC(=O)c1cn(Cc2ccc3ncc(Cl)cc3c2)c2ncnc(N)c12 [Example 34, 4-amino-7-(3-chloro-quinolin-6-ylmethyl)-7H-pyrrolo[2,3-d]pyrimidine-5-carboxylic acid (6-amino-2,4-dimethyl-pyridin-3-ylmethyl)-amide] here?
Answer: < 100 nM

Question: Cc1cc(N)nc(C)c1CNC(=O)c1cnn(Cc2ccc3ncc(Cl)cc3c2)c1C#N [Example 40, N-((6-amino-2,4-dimethylpyridin-3-yl)methyl)-1-((3-chloroquinolin-6-yl)methyl)-5-cyano-1H-pyrazole-4-carboxamide] was tested. Which IC50 did it give?
Answer: 1000 to 10000 nM

Question: With Cc1cc(N)nc(C)c1CNC(=O)c1ncc(Cc2ccc3ncc(Cl)cc3c2)[nH]1 [Example 41, N-((6-amino-2,4-dimethylpyridin-3-yl)methyl)-5-((3-chloroquinolin-6-yl)methyl)-1H-imidazole-2-carboxamide] as the compound, how does the IC50 read?
Answer: 100 to 1000 nM

Question: O=C(NCc1n[nH]c2ccc(Cl)cc12)c1nnc(Cc2ccc3ncc(Cl)cc3c2)o1 [Example 42, N-((5-chloro-1H-indazol-3-yl)methyl)-5-((3-chloroquinolin-6-yl)methyl)-1,3,4-oxadiazole-2-carboxamide] was tested. Which IC50 did it give?
Answer: 100 to 1000 nM

Question: For O=C(NCc1ccc2[nH]cc(Cl)c2c1F)c1nnc(Cc2ccc3ncc(Cl)cc3c2)o1 [Example 43, N-((3-chloro-4-fluoro-1H-indol-5-yl)methyl)-5-((3-chloroquinolin-6-yl)methyl)-1,3,4-oxadiazole-2-carboxamide], which IC50 is on record?
Answer: 100 to 1000 nM

Question: Which IC50 does the source give for O=C(NCc1cc2c(Cl)c[nH]c2cc1F)c1nnc(Cc2ccc3ncc(Cl)cc3c2)o1 [Example 44, N-((3-chloro-6-fluoro-1H-indol-5-yl)methyl)-5-((3-chloroquinolin-6-yl)methyl)-1,3,4-oxadiazole-2-carboxamide] here?
Answer: 100 to 1000 nM

Question: With O=C(NCc1cnc2[nH]cc(Cl)c2c1)c1nnc(Cc2ccc3ncc(Cl)cc3c2)o1 [Example 45, N-((3-chloro-1H-pyrrolo[2,3-b]pyridin-5-yl)methyl)-5-((3-chloroquinolin-6-yl)methyl)-1,3,4-oxadiazole-2-carboxamide] as the compound, how does the IC50 read?
Answer: 100 to 1000 nM

Question: For Nc1nccc2cc(CNC(=O)c3nnc(Cc4ccc5ncc(Cl)cc5c4)o3)ccc12 [Example 46, N-((1-aminoisoquinolin-6-yl)methyl)-5-((3-chloroquinolin-6-yl)methyl)-1,3,4-oxadiazole-2-carboxamide], which IC50 is on record?
Answer: 100 to 1000 nM

Question: N#Cc1nn(Cc2ccc3ncc(Cl)cc3c2)cc1C(=O)NCc1ccc2[nH]cc(Cl)c2c1F [Example 47, N-((3-chloro-4-fluoro-1H-indol-5-yl)methyl)-1-((3-chloroquinolin-6-yl)methyl)-3-cyano-1H-pyrazole-4-carboxamide] was tested. Which IC50 did it give?
Answer: 100 to 1000 nM

Question: Which IC50 does the source give for N#Cc1nn(Cc2ccc3ncc(Cl)cc3c2)cc1C(=O)NCc1n[nH]c2ccc(Cl)cc12 [Example 48, N-((5-chloro-1H-indazol-3-yl)methyl)-1-((3-chloroquinolin-6-yl)methyl)-3-cyano-1H-pyrazole-4-carboxamide] here?
Answer: 100 to 1000 nM

Question: N#Cc1nn(Cc2ccc3ncc(Cl)cc3c2)cc1C(=O)NCc1ccc2c(N)nccc2c1 [Example 49, N-((1-aminoisoquinolin-6-yl)methyl)-1-((3-chloroquinolin-6-yl)methyl)-3-cyano-1H-pyrazole-4-carboxamide] was tested. Which IC50 did it give?
Answer: < 100 nM

Question: For N#Cc1nn(Cc2ccc3ncc(Cl)cc3c2)cc1C(=O)NCc1cnc2[nH]cc(Cl)c2c1 [Example 50, N-((3-chloro-1H-pyrrolo[2,3-b]pyridin-5-yl)methyl)-1-((3-chloroquinolin-6-yl)methyl)-3-cyano-1H-pyrazole-4-carboxamide], which IC50 is on record?
Answer: 100 to 1000 nM

Question: How did the IC50 turn out when N#Cc1nn(Cc2ccc3ncc(Cl)cc3c2)cc1C(=O)NCc1cc2c(Cl)c[nH]c2cc1F [Example 51, N-((3-chloro-6-fluoro-1H-indol-5-yl)methyl)-1-((3-chloroquinolin-6-yl)methyl)-3-cyano-1H-pyrazole-4-carboxamide] was run?
Answer: 100 to 1000 nM

Question: Which IC50 does the source give for N#Cc1nn(Cc2cc(F)c3ncc(Cl)cc3c2)cc1C(=O)NCc1cc2c(Cl)c[nH]c2cc1F [Example 53, N-((3-chloro-6-fluoro-1H-indol-5-yl)methyl)-1-((3-chloro-8-fluoroquinolin-6-yl)methyl)-3-cyano-1H-pyrazole-4-carboxamide] here?
Answer: < 100 nM

Question: How did the IC50 turn out when N#Cc1nn(Cc2cc(F)c3ncc(Cl)cc3c2)cc1C(=O)NCc1n[nH]c2ccc(Cl)cc12 [Example 55, N-((5-chloro-1H-indazol-3-yl)methyl)-1-((3-chloro-8-fluoroquinolin-6-yl)methyl)-3-cyano-1H-pyrazole-4-carboxamide] was run?
Answer: 100 to 1000 nM

Question: For N#Cc1nn(Cc2cc(F)c3ncc(Cl)cc3c2)cc1C(=O)NCc1cnc2[nH]cc(Cl)c2c1 [Example 56, N-((3-chloro-1H-pyrrolo[2,3-b]pyridin-5-yl)methyl)-1-((3-chloro-8-fluoroquinolin-6-yl)methyl)-3-cyano-1H-pyrazole-4-carboxamide], which IC50 is on record?
Answer: < 100 nM

Question: With N#Cc1nn(Cc2cc(F)c3ncc(Cl)cc3c2)cc1C(=O)NCc1ccc2[nH]cc(Cl)c2c1F [Example 57, N-((3-chloro-4-fluoro-1H-indol-5-yl)methyl)-1-((3-chloro-8-fluoroquinolin-6-yl)methyl)-3-cyano-1H-pyrazole-4-carboxamide] as the compound, how does the IC50 read?
Answer: 100 to 1000 nM

Question: Which IC50 does the source give for Cc1cc(N)nc(C)c1CNC(=O)c1cn(Cc2cc(S(N)(=O)=O)c3ncc(Cl)cc3c2)nc1C#N [Example 60, N-((6-amino-2,4-dimethylpyridin-3-yl)methyl)-1-((3-chloro-8-sulfamoylquinolin-6-yl)methyl)-3-cyano-1H-pyrazole-4-carboxamide] here?
Answer: < 100 nM

Question: How did the IC50 turn out when Cc1cnc2c(C#N)cc(Cn3cc(C(=O)NCc4c(C)cc(N)nc4C)c(C(N)=O)n3)cc2c1 [Example 63, N4-((6-amino-2,4-dimethylpyridin-3-yl)methyl)-1-((8-cyano-3-methylquinolin-6-yl)methyl)-1H-pyrazole-3,4-dicarboxamide] was run?
Answer: 100 to 1000 nM
